Values of other authors as cited in patent publication US9920014B2, “Selective inhibition of bacterial topoisomerase I” (THE FLORIDA INTERNATIONAL BOARD OF TRUSTEES MODESTO A. …, priority 2013, dated 2018).

Biological target: E. coli DNA topoisomerase I (Escherichia coli, UniProt P06612)
Details: reported by Bansal et al. 2012; read-out: E. coli Topo I IC50 (literature value); cited from earlier work

E. coli DNA topoisomerase I, sequence (P06612 whole entry): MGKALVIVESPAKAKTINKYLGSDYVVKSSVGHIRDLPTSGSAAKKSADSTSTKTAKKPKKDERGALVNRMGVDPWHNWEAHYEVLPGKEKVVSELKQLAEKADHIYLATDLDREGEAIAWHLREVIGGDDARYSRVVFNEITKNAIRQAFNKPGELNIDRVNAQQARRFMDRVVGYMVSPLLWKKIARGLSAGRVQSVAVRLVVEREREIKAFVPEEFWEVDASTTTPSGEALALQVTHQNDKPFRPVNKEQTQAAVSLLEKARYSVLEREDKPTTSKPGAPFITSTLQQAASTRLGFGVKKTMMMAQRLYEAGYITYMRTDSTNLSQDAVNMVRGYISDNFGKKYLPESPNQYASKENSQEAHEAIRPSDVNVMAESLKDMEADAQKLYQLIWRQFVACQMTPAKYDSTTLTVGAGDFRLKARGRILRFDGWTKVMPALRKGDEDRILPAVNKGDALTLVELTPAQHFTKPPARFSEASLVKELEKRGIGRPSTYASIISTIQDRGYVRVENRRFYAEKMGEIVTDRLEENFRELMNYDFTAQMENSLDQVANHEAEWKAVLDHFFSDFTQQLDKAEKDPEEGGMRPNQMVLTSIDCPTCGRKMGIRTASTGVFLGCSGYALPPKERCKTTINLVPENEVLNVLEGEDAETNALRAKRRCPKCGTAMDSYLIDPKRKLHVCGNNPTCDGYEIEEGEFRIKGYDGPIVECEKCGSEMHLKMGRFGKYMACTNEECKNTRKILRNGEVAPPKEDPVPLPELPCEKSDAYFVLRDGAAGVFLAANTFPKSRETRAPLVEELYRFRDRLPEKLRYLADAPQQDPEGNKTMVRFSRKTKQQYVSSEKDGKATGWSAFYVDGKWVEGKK

COc1ccc(-c2nc3ccc(-c4nc5ccc(N6CCN(C)CC6)cc5[nH]4)cc3[nH]2)cc1OC [DMA]
IC50: 3.8 µM
